# Test system: HIV-1 (H9IIIB strain)
# Assay: Cell-Based HIV Infection Assay Using a Reporter (MT4-GFP cells)
# Conditions: Human immunodeficiency virus 1, inflection point (IP) of viral growth inhibition; MT4-GFP cells infected with HIV-1 H9IIIB; 50% normal human serum; mean of at least two independent experiments; read-out: Cell Based IP (50% NHS)
# Method in brief: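 Inflection point from a 4-parameter curve of % viral growth inhibition, normalised to DMSO and triple-drug controls, using the 48 h/24 h ratio of GFP-positive cells (R0). MT4-GFP cells pre-infected 24 h with HIV-1 H9IIIB at low MOI; compounds tested in 50% normal human serum, 0.4% DMSO; mean of ≥2 experiments.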
row,SMILES,EC50 [µM]
1,"COC(=O)N[C@H](C(=O)N[C@H]1CCC[C@@H]1CC[C@H]1CN[C@@H]2CCCS(=O)(=O)N1C2)[C@H](c1cncc(C(F)(F)F)c1)c1ccc(Cl)c(F)c1 [Example 79, methyl {(1S,2S)-2-(4-chloro-3-fluorophenyl)-1-{[(1S,2R)-2-{2-[(6R,9S)-2,2-dioxido-2-thia-1,7-diazabicyclo[4.3.1]dec-9-yl]ethyl}cyclopentyl]carbamoyl}-2-[5-(trifluoromethyl)pyridin-3-yl]ethyl}carbamate]",0.031
2,"N[C@H](C(=O)Nc1cccc(F)c1CC[C@H]1CN[C@@H]2CCCS(=O)(=O)N1C2)[C@@H](c1ccc(F)cc1)[C@H]1CC[C@H](O)CC1 [Example 202, (βR)-N-(2-{2-[(6R,9S)-2,2-dioxido-2-thia-1,7-diazabicyclo[4.3.1]dec-9-yl]ethyl}-3-fluorophenyl)-4-fluoro-β-[(1r,4R)-4-hydroxycyclohexyl]-L-phenylalaninamide]",0.089
3,"COC(=O)N[C@H](C(=O)Nc1cccc(F)c1CC[C@H]1CNC2CCCS(=O)(=O)N1C2)C1(c2ccc(Cl)cc2)CCOCC1 (stereo partly drawn) [Example 42, methyl {(1S)-1-[4-(4-chlorophenyl)tetrahydro-2H-pyran-4-yl]-2-[(2-{2-[(9S)-2,2-dioxido-2-thia-1,7-diazabicyclo[4.3.1]dec-9-yl]ethyl}-3-fluorophenyl)amino]-2-oxoethyl}carbamate]",0.031
4,"CC(F)(F)c1ccc([C@H](c2ccc(Cl)cc2)[C@H](N)C(=O)Nc2cncc(F)c2CC[C@H]2CN[C@@H]3CCCS(=O)(=O)N2C3)cn1 [Example 246, (2S,3R)-2-amino-3-(4-chlorophenyl)-3-(6-(1,1-difluoroethyl)pyridin-3-yl)-9-(4-(2-((6R,9S)-2,2-dioxido-2-thia-1,7-diazabicyclo[4.3.1]decan-9-yl)ethyl)-5-fluoropyridin-3-yl)propanamide]",0.019
5,"COC(=O)N[C@H](C(=O)N[C@H]1CCCC[C@@H]1CC[C@H]1CN[C@@H]2CCCS(=O)(=O)N1C2)[C@H](c1cncc(C(F)(F)F)c1)c1ccc(Cl)c(F)c1 [Example 97, methyl {(1S,2S)-2-(4-chloro-3-fluorophenyl)-1-{[(1S,2R)-2-{2-[(6R,9S)-2,2-dioxido-2-thia-1,7-diazabicyclo[4.3.1]dec-9-yl]ethyl}cyclohexyl]carbamoyl}-2-[5-(trifluoromethyl)pyridin-3-yl]ethyl}carbamate]",0.019
6,"COC(=O)N[C@H](C(=O)Nc1cccc(F)c1CC[C@H]1CN[C@@H]2CCCS(=O)(=O)N1C2)[C@@H](c1ccc(F)cc1)C1C[C@@H](C)O[C@H](C)C1 (stereo partly drawn) [Example 112, methyl [(1S,2R)-2-[(2R,6R)-2,6-dimethyltetrahydro-2H-pyran-4-yl]-1-[(2-{2-[(6R,9S)-2,2-dioxido-2-thia-1,7-diazabicyclo[4.3.1]dec-9-yl]ethyl}-3-fluorophenyl)carbamoyl]-2-(4-fluorophenyl)ethyl]carbamate]",0.042
7,"COC(=O)N[C@H](C(=O)Nc1cccc(F)c1CC[C@H]1CNC2CCCS(=O)(=O)N1C2)C1(c2ccc(F)cc2)CCC(F)(F)CC1 (stereo partly drawn) [Example 41, methyl {(1S)-1-[4,4-difluoro-1-(4-fluorophenyl)cyclohexyl]-2-[(2-{2-[(9S)-2,2-dioxido-2-thia-1,7-diazabicyclo[4.3.1]dec-9-yl]ethyl}-3-fluorophenyl)amino]-2-oxoethyl}carbamate]",0.043
8,"CO[C@H]1CC[C@](c2ccc(F)cc2)([C@H](N)C(=O)Nc2cncc(F)c2CC[C@H]2CN[C@@H]3CCCS(=O)(=O)N2C3)CC1 [Example 235, (2S)-2-amino-N-(4-{2-[(6R,9S)-2,2-dioxido-2-thia-1,7-diazabicyclo[4.3.1]dec-9-yl]ethyl}-5-fluoropyridin-3-yl)-2-[trans-1-(4-fluorophenyl)-4-methoxycyclohexyl]ethanamide]",0.067
9,"CC1(C)C[C@@H]([C@H](c2ccc(Cl)cc2)[C@H](N)C(=O)Nc2cncc(F)c2CC[C@H]2CN[C@@H]3CCCS(=O)(=O)N2C3)CCO1 [Example 215, (βR)-4-chloro-β-[(4S)-2,2-dimethyltetrahydro-2H-pyran-4-yl]-N-(4-{2-[(6R,9S)-2,2-dioxido-2-thia-1,7-diazabicyclo[4.3.1]dec-9-yl]ethyl}-5-fluoropyridin-3-yl)-L-phenylalaninamide]",0.008
10,"COC(=O)N[C@H](C(=O)N[C@H]1CCCC[C@@H]1CC[C@H]1CN[C@@H]2CCCS(=O)(=O)N1C2)[C@@H](c1ccc(Cl)cc1)C1CCOCC1 [Example 25, Methyl [(1S,2R)-2-(4-chlorophenyl)-1-{[(1S,2R)-2-{2-[(6R,9S)-2,2-dioxido-2-thia-1,7-diazabicyclo[4.3.1]dec-9-yl]ethyl}cyclohexyl]carbamoyl}-2-(tetrahydro-2H-pyran-4-yl)ethyl]carbamate]",0.041
11,"N[C@H](C(=O)Nc1cccc(F)c1CCC1CNC2CCCS(=O)(=O)N1C2)[C@H](c1ccc(F)cc1)C1CCC(F)(F)CC1 (stereo partly drawn) [Example 61, (βS)-β-(4,4-difluorocyclohexyl)-N-{2-[2-(2,2-dioxido-2-thia-1,7-diazabicyclo[4.3.1]dec-9-yl)ethyl]-3-fluorophenyl}-4-fluoro-L-phenylalaninamide]",0.16
12,"COC(=O)N[C@H](C(=O)Nc1cccc(F)c1CCC1CNC2CCCS(=O)(=O)N1C2)[C@H](CCC1CCCCO1)c1ccc(Cl)cc1 (stereo partly drawn) [Example 153, methyl [(1S,2R)-2-(4-chlorophenyl)-1-({2-[2-(2,2-dioxido-2-thia-1,7-diazabicyclo[4.3.1]dec-9-yl)ethyl]-3-fluorophenyl}carbamoyl)-4-(tetrahydro-2H-pyran-2-yl)butyl]carbamate]",0.0097
13,"COC(=O)N[C@H](C(=O)Nc1cccc(F)c1CCC1CNC2CCCS(=O)(=O)N1C2)[C@@H](c1ccc(Cl)cc1)c1ccc(=O)n(C(C)C)c1 (stereo partly drawn) [Example 101, methyl {(1S,2S)-2-(4-chlorophenyl)-1-({2-[2-(2,2-dioxido-2-thia-1,7-diazabicyclo[4.3.1]dec-9-yl)ethyl]-3-fluorophenyl}carbamoyl)-2-[1-(1-methylethyl)-6-oxo-1,6-dihydropyridin-3-yl]ethyl}carbamate]",0.059
14,"N[C@H](C(=O)Nc1cccc(F)c1CC[C@H]1CNC2CCCS(=O)(=O)N1C2)C1(c2ccc(Cl)cc2)CCOCC1 (stereo partly drawn) [Example 40, (2S)-2-amino-2-[4-(4-chlorophenyl)tetrahydro-2H-pyran-4-yl]-N-(2-{2-[(9S)-2,2-dioxido-2-thia-1,7-diazabicyclo[4.3.1]dec-9-yl]ethyl}-3-fluorophenyl)ethanamide]",0.099
15,"N[C@H](C(=O)N[C@H]1CCCC[C@@H]1CC[C@H]1CN[C@@H]2CCCS(=O)(=O)N1C2)[C@@H](c1ccc(Cl)cc1)C1CCOCC1 [Example 24, (βR)-4-Chloro-N-[(1S,2R)-2-{2-[(6R,9S)-2,2-dioxido-2-thia-1,7-diazabicyclo[4.3.1]dec-9-yl]ethyl}cyclohexyl]-β-(tetrahydro-2H-pyran-4-yl)-L-phenylalaninamide]",0.013
16,"COC(=O)N[C@H](C(=O)Nc1cccc(F)c1CCC1CNC2CCCS(=O)(=O)N1C2)[C@@H](c1ccc(Cl)cc1)C(C)C (stereo partly drawn) [Example 3, Methyl [(1S,2R)-2-(4-chlorophenyl)-1-({2-[2-(2,2-dioxido-2-thia-1,7-diazabicyclo[4.3.1]dec-9-yl)ethyl]-3-fluorophenyl}carbamoyl)-3-methylbutyl]carbamate]",0.014
17,"CC(C)O[C@H]1CC[C@H]([C@H](c2ccc(Cl)cc2)[C@H](N)C(=O)Nc2cncc(F)c2CC[C@H]2CN[C@@H]3CCCS(=O)(=O)N2C3)CC1 [Example 250, (βR)-4-chloro-N-(4-{2-[(6R,9S)-2,2-dioxido-2-thia-1,7-diazabicyclo[4.3.1]dec-9-yl]ethyl}-5-fluoropyridin-3-yl)-β-[(1r,4R)-4-(1-methylethoxy)cyclohexyl]-L-phenylalaninamide]",0.0077
18,"N[C@H](C(=O)Nc1cccc(F)c1CCC1CNC2CCCS(=O)(=O)N1C2)[C@@H](c1ccc(F)cc1)c1cccc(C(F)(F)F)c1 (stereo partly drawn) [Example 2, (βS)—N-{2-[2-(2,2-Dioxido-2-thia-1,7-diazabicyclo[4.3.1]dec-9-yl)ethyl]-3-fluorophenyl}-β-(4-fluorophenyl)-3-(trifluoromethyl)-L-phenylalaninamide]",0.0067
19,"Cn1nc(C(F)(F)F)cc1[C@H](c1ccc(Cl)cc1)[C@H](N)C(=O)Nc1cccc(F)c1CC[C@H]1CN[C@@H]2CCCS(=O)(=O)N1C2 [Example 261, (βR)-4-chloro-N-(2-{2-[(6R,9S)-2,2-dioxido-2-thia-1,7-diazabicyclo[4.3.1]dec-9-yl]ethyl}-3-fluorophenyl)-β-[1-methyl-3-(trifluoromethyl)-1H-pyrazol-5-yl]-L-phenylalaninamide]",0.0087
20,"COC(=O)N[C@H](C(=O)Nc1cccc(F)c1CC[C@H]1CN[C@@H]2CCCS(=O)(=O)N1C2)[C@@H](c1ccc(F)cc1)[C@H]1CC[C@H](O)CC1 [Example 201, methyl [(1S)-2-[(2-{2-[(6R,9S)-2,2-dioxido-2-thia-1,7-diazabicyclo[4.3.1]dec-9-yl]ethyl}-3-fluorophenyl)amino]-1-{(R)-(4-fluorophenyl)[(1r,4R)-4-hydroxycyclohexyl]methyl}-2-oxoethyl]carbamate]",0.22
21,"COC(=O)N[C@H](C(=O)Nc1cccc(F)c1CCC1CNC2CCCS(=O)(=O)N1C2)[C@@H](c1ccc(F)cc1)c1cccc(C(F)(F)F)c1 (stereo partly drawn) [Example 63, methyl [(1S)-2-({2-[2-(2,2-dioxido-2-thia-1,7-diazabicyclo[4.3.1]dec-9-yl)ethyl]-3-fluorophenyl}amino)-1-{(S)-(4-fluorophenyl)[3-(trifluoromethyl)phenyl]methyl}-2-oxoethyl]carbamate]",0.014
22,"N[C@H](C(=O)Nc1cccc(F)c1CCC1CNC2CCCS(=O)(=O)N1C2)[C@H](c1cncc(Cl)c1)c1ccc(Cl)c(F)c1 (stereo partly drawn) [Example 72, (βS)-4-chloro-β-(5-chloropyridin-3-yl)-N-{2-[2-(2,2-dioxido-2-thia-1,7-diazabicyclo[4.3.1]dec-9-yl)ethyl]-3-fluorophenyl}-3-fluoro-L-phenylalaninamide]",0.0051
